Assays:
cystinotic fibroblasts [1] = assay: Cystine depletion during constant drug exposure in cystinotic fibroblasts; assay type: cell-based, human; details: 100 uM constant exposure, 0-5 h; vs cystamine
Description: (§1) In vitro experiments with isotopically enriched cystamine in cystinotic fibroblasts. Fibroblasts from a de-identified cystinotic patient were split 3× from 2 plates into 36 plates. Three different drugs were used for the experiments: cystamine (non-labeled), d2-cystamine, and d4-cystamine. There were two time series for each drug. The first was with constant drug incubation and included: 0, 10 min, 30 min, 1 h, 3 h, and 5 h. The other series included a washout after 3 h drug incubation, using fresh media following a PBS wash, and included the timepoints: 0, 30 min, 1 h, 3 h, 5 h, and 17 h. A direct quench and extraction technique were used for harvesting all cells to minimize further oxidation and metabolism. This included 2× washes with PBS that included 5 mM N-ethylmaleimide for trapping free thiol groups, and then scraping the plates with an acidified organic solvent extraction solution containing both d4-cystine and d4-cysteamine (plus d-8 cystamine) as internal standards. All samples were run on an API 4500 triple quadrupole LC-MS/MS, with selective reaction monitoring (SRM/MRM) for the following compounds of interest: cystine, NEM-cysteamine, NEM-cysteine, cystamine, and 2-(methylthio)ethylamine. All data fit well to single exponential curves (either decay or association), except where mentioned.
Following incubation, cells were washed 2× in PBS containing N-ethylmaleimide.
Fibroblasts from a de-identified cystinotic patient were split 3× from 2 plates into 18 plates. Two different drugs were used for the experiments: D4n-cystamine, and D8-cystamine. There were two time series for each drug. The first was with constant drug incubation and included: 0, 15 min, 30 min, 1 hr, and 3 hr. The other series included a washout after 3 hours of drug incubation, using fresh media following a PBS wash, and included the time-points: 0, 1 hr, 3 hr, and 16 hr. A direct quench and extraction technique was used for harvesting all cells to minimize further oxidation and metabolism. […] All samples were run on an API 4500 triple quadruple LC-MS/MS, with selective reaction monitoring (SRM/MRM) for the following compounds of interest: cystine, NEM-cysteamine, NEM-cysteine, and cystamine. All data fit well to single exponential curves (either decay or association), except where mentioned.

cystinotic fibroblasts [2] = assay: Intracellular NEM-cysteamine, NEM-cysteine, cystamine and mixed disulfide levels in cystinotic fibroblasts; assay type: cell-based, human; details: washout period
Description: as §1
NEM-cysteamine and NEM-cysteine during constant incubation. Fibroblast cultures were exposed to drug (either cystamine, d2-cystamine, or d4-cystamine) and harvested as described on page 2 for the cystine depletion curve. NEM-cysteamine (or NEM-d1-cysteamine or NEM-d2-cysteamine) was measured for each respective plate and normalized against the signal for d4-cystine.
NEM-cysteamine during washout. Fibroblast cultures were exposed to drug (either cystamine, d2-cystamine, or d4-cystamine) for 3 h were then exposed to media for various timepoints and harvested as previously described.
NEM-cysteine during washout. Fibroblast cultures were exposed to drug (either cystamine, d2-cystamine, or d4-cystamine) for 3 h were then exposed to media for various timepoints and harvested as previously described.
Cystamine during constant drug incubation. Fibroblast cultures were exposed to drug (either cystamine, d2-cystamine, or d4-cystamine) for various timepoints following harvesting as described earlier. Cystamine could be measured in the non-labeled cystamine incubation as well as the d4-cystamine incubation. d2-cystamine could not be accurately measured due to a strong background interference signal corresponding to that mass. No cystamine could be measured in the washout experiments.

[3] = Pharmacokinetics of cystamine and D4-cystamine in rats (monomer measured in plasma); assay type: in vivo, Sprague Dawley rats
Description: Pharmacokinetics of Cystamine in Rats.
In the experimental study 5 Sprague Dawley rats were used: 2 rats were used for control (non-deuterated cystamine) and 3 rats were used for the study compound (D4 cystamine).
Blood was sampled at 0, 20 min, 40 min, 1, 2, 4 and 6 hours (7 total samples per rat). Approximately 160 μl of whole blood was collected into an EDTA retro-orbital blood collection tube and briefly mixed to insure uniform mixing of EDTA. The blood was quickly transferred into a clean ependorf tube containing 40 μl of fresh 150 mM NEM, mixed and incubated at room temperature for 10 minutes. The Eppendorf tube was centrifuged at 3000 rmp for 5 minute sto pellet RBC and collect plasma into a fresh Eppendorf tube. The volume of the plasma was measured by pipette. Formic acid was added to the plasma to a concentration of 1% and mixed.

AUC relative to non-deuterated cystamine [3]: at least 1.6 ×
Cmax relative to non-deuterated cystamine [3]: ~2 ×
AUC of derived monomer, comparison in words ([3]; vs cystamine derived cysteamine): much higher
SMILES: [2H]C([2H])(CN)SSC([2H])([2H])CN [D4-Cystamine, 2,2′-disulfanediylbis(ethan-2,2-d2-1-aminium) chloride]
Rate of intracellular cystine depletion, comparison in words (cystinotic fibroblasts [1]): nearly identical
NEM-cysteine level after 3 h incubation and washout (cystinotic fibroblasts [2]): rise and increase

From US12391643B2, “Substituted amino-thiol and amino-disulfide compounds, and uses thereof” (The Regents of the University of California, priority 2019, dated 2025)
